In US7632928B2, “Method and antibodies for detecting nitrofuran” (Charm Sciences, Inc, priority 2004, dated 2009):

Columns and labels:
[1] = test system: antibody raised against FZDM-Glut-Thyroglobulin immunogen; assay: AOZ ELISA competitive binding assay; conditions: positive controls at input levels 0.1 to 10 ppb; PEB vs PBS buffer; plate coated with N-linked FZDM-BSA
From the text: An AOZ ELISA competitive binding assay is shown below, where the N-linked direct conjugate of FZDM-BSA is used as a binding partner conjugate coated on the ELISA plate, and the N-linked direct conjugate of FZDM-alpha-amylase is used as the positive control of protein-bound FZDM in comparison with the FZDM positive control. The antibody used in the assay was raised against the prior art FZDM-Glut-Thyroglobulin immunogen. Assays were run in two different buffers comparing PEB (Protein Elution Buffer) vs. PBS (Phosphate buffer saline).

Row | dose-responses (% inhibition) [1] | melting point [°C] | Compound
1 | varying dose-responses |  | N#CC=CC(=O)/C=N/N1CCOC1=O [compound 3, 5-(2-oxo-oxazolidin-3-ylimino)-4-oxo-pent-2-enenitrile]
2 |  | 171 to 173 | N#CC=CC(=O)/C=N/N1CC(=O)NC1=O [compound 1, 5-(2,4-Dioxoimidazolidin-1-ylimino)-4-oxo-pent-2-enenitrile]
